Reference: ChEMBL document CHEMBL5678816, “A Next-Generation TRK Kinase Inhibitor Overcomes Acquired Resistance to Prior TRK Kinase Inhibition in Patients with TRK Fusion-Positive Solid Tumors” (Cancer Discov, 2017)
Calls of active or inactive are those of the source. The rule behind the calls is not given here.

Legend:
[1] = biological target: Serine/threonine-protein kinase STK11 (Homo sapiens) (UniProt Q15831); test: Inhibition of LKB1 (unknown origin) at 1 uM in presence of ATP relative to control; values are per cent of control
[2] = Inhibition of N-terminal 3FLAG-tagged ETV6-TRKC G623R mutant (unknown origin) expressed in NIH3T3 cells assessed as ERK1/2 phosphorylation incubated for 1 hrs by flow cytometric analysis; type: cell-based, Homo sapiens
[3] = biological target: Serine/threonine-protein kinase 3 (Homo sapiens) (UniProt Q13188); test: Inhibition of MST2 (unknown origin) at 1 uM in presence of ATP relative to control; values are per cent of control
TAK1/TAB1 (Homo sapiens) = TAK1/TAB1 (Homo sapiens) (UniProt Q15750+O43318); test: Inhibition of TAK1-TAB1 (unknown origin) at 1 uM in presence of ATP relative to control; values are per cent of control
[4] = biological target: Dual specificity protein kinase CLK3 (Homo sapiens) (UniProt P49761); test: Inhibition of CLK3 (unknown origin) at 1 uM in presence of ATP relative to control; values are per cent of control
Sequence of Dual specificity protein kinase CLK3 (Homo sapiens) (P49761 whole entry, looked up): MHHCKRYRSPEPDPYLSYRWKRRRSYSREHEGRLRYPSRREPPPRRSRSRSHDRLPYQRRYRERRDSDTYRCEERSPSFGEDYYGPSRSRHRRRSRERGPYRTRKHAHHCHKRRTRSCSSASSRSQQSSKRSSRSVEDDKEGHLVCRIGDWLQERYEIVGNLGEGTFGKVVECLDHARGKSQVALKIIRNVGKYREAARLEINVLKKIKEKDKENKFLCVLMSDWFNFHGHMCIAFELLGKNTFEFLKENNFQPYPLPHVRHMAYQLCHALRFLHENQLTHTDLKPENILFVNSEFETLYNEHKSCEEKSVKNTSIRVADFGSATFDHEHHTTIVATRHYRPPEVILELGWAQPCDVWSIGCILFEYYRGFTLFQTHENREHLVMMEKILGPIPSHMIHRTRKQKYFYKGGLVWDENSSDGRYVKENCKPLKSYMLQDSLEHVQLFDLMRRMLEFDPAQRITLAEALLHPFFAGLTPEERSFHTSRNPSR

[5] = biological target: Serine/threonine-protein kinase tousled-like 2 (Homo sapiens) (UniProt Q86UE8); test: Inhibition of TLK2 (unknown origin) at 1 uM in presence of ATP relative to control; values are per cent of control
[6] = biological target: Interleukin-1 receptor-associated kinase 1 (Homo sapiens) (UniProt P51617); test: Inhibition of IRAK1 (unknown origin) at 1 uM in presence of ATP relative to control; values are per cent of control
CAL-27 = test: Inhibition of cell proliferation in human CAL-27 cells upto 10 umol/L incubated for 72 hrs by DAPI staining based analysis; type: functional; conditions: dose <= 10.0 µmol/L
Detroit 562 = test: Inhibition of cell proliferation in human Detroit 562 cells upto 10 umol/L incubated for 72 hrs by DAPI staining based analysis; type: functional; conditions: dose <= 10.0 µmol/L
AN3-CA = test: Inhibition of cell proliferation in human AN3-CA cells upto 10 umol/L incubated for 72 hrs by DAPI staining based analysis; type: functional; conditions: dose <= 10.0 µmol/L
[7] = biological target: Serine/threonine-protein kinase WNK3 (Homo sapiens) (UniProt Q9BYP7); test: Inhibition of WNK3 (unknown origin) at 1 uM in presence of ATP relative to control; values are per cent of control
[8] = biological target: MAP kinase-activated protein kinase 3 (Homo sapiens) (UniProt Q16644); test: Inhibition of MAPKAP-K3 (unknown origin) at 1 uM in presence of ATP relative to control; values are per cent of control
Sequence of MAP kinase-activated protein kinase 3 (Homo sapiens) (Q16644 whole entry, looked up): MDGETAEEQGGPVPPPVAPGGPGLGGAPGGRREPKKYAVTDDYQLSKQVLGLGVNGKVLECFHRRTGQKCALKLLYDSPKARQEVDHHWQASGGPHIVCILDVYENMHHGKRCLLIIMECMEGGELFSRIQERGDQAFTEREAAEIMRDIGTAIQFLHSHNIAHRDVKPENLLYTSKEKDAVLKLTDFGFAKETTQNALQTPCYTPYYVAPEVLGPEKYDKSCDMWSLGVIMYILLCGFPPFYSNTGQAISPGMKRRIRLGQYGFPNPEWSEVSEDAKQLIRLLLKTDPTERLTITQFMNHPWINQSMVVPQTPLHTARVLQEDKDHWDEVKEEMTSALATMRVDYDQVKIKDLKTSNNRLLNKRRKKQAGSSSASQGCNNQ

[9] = biological target: Ribosomal protein S6 kinase alpha-4 (Homo sapiens) (UniProt O75676); test: Inhibition of MSK2 (unknown origin) at 1 uM in presence of ATP relative to control; values are per cent of control
Sequence of Ribosomal protein S6 kinase alpha-4 (Homo sapiens) (O75676 whole entry, looked up): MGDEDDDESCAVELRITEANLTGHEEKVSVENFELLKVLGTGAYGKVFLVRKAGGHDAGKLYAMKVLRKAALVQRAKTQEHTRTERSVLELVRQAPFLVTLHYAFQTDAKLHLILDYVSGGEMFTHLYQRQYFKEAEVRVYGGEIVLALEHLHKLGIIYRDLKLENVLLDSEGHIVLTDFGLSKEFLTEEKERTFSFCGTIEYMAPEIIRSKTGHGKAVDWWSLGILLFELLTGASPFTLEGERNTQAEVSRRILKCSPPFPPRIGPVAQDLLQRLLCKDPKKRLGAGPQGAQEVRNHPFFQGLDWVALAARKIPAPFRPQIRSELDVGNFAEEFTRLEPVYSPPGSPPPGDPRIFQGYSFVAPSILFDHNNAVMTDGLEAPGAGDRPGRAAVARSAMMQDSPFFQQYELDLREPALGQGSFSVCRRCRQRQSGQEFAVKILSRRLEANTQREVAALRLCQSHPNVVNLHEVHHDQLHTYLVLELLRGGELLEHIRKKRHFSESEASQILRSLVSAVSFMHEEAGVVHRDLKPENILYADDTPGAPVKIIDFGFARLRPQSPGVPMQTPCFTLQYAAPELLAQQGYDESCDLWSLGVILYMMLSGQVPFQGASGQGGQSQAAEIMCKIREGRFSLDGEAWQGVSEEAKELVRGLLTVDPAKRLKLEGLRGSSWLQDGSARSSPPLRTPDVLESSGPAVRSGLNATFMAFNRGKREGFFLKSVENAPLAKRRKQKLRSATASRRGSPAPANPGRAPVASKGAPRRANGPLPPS

[10] = biological target: Rho-associated protein kinase 2 (Homo sapiens) (UniProt O75116); test: Inhibition of ROCK-II (unknown origin) at 1 uM in presence of ATP relative to control; values are per cent of control
DMS-53 = test: Inhibition of cell proliferation in human DMS-53 cells upto 10 umol/L incubated for 72 hrs by DAPI staining based analysis; type: functional; conditions: dose <= 10.0 µmol/L
SW1353 = test: Inhibition of cell proliferation in human SW1353 cells upto 10 umol/L incubated for 72 hrs by DAPI staining based analysis; type: functional; conditions: dose <= 10.0 µmol/L
[11] = biological target: Tyrosine-protein kinase SYK (Homo sapiens) (UniProt P43405); test: Inhibition of Syk (unknown origin) at 1 uM in presence of ATP relative to control; values are per cent of control
[12] = biological target: Platelet-derived growth factor receptor alpha (Homo sapiens) (UniProt P16234); test: Inhibition of PDGFRalpha (unknown origin) at 1 uM in presence of ATP relative to control; values are per cent of control
Sequence of Platelet-derived growth factor receptor alpha (Homo sapiens) (P16234 whole entry): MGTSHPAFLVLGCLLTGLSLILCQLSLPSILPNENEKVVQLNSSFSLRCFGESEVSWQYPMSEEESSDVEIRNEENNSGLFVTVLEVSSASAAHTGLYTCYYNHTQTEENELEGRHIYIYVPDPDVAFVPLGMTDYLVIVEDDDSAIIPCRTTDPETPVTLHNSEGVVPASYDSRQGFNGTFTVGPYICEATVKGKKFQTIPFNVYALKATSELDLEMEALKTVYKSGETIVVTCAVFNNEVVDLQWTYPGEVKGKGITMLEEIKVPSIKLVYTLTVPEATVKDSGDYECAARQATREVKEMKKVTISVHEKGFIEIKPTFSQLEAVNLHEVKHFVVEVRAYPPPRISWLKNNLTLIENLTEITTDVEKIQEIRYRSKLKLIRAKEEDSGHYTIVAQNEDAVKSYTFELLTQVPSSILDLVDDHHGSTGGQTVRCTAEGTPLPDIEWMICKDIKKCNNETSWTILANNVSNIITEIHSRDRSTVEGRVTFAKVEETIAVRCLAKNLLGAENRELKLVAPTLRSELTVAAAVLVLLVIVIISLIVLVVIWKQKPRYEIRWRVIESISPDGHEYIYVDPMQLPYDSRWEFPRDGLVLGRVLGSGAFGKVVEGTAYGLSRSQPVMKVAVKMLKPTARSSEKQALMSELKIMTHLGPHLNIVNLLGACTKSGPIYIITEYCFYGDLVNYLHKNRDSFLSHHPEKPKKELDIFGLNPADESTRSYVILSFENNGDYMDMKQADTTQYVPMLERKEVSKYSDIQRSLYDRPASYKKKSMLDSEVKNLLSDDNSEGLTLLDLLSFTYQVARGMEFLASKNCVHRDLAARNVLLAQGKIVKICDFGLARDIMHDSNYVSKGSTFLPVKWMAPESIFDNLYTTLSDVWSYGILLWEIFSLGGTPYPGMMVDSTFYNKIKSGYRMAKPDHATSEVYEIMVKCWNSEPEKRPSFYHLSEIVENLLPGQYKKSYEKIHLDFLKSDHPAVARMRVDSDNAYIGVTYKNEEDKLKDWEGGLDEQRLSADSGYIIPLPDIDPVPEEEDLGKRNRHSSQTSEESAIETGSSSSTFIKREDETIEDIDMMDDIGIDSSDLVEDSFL

[13] = biological target: Testis-specific serine/threonine-protein kinase 2 (Homo sapiens) (UniProt Q96PF2); test: Inhibition of TSSK2 (unknown origin) at 1 uM in presence of ATP relative to control; values are per cent of control
Sequence of Testis-specific serine/threonine-protein kinase 2 (Homo sapiens) (Q96PF2 whole entry): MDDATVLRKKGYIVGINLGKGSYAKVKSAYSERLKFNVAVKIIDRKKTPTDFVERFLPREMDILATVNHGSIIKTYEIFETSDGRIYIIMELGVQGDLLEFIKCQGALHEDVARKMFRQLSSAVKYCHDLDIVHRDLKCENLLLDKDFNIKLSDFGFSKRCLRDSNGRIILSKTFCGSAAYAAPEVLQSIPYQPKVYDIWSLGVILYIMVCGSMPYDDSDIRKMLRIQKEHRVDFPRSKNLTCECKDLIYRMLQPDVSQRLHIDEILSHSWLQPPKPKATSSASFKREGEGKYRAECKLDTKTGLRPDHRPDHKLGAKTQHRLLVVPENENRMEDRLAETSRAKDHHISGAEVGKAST

NCI-H441 = test: Inhibition of cell proliferation in human NCI-H441 cells upto 10 umol/L incubated for 72 hrs by DAPI staining based analysis; type: functional; conditions: dose <= 10.0 µmol/L
[14] = biological target: Mitogen-activated protein kinase 14 (Homo sapiens) (UniProt Q16539); test: Inhibition of p38alpha (unknown origin) at 1 uM in presence of ATP relative to control; values are per cent of control
Sequence of Mitogen-activated protein kinase 14 (Homo sapiens) (Q16539 whole entry): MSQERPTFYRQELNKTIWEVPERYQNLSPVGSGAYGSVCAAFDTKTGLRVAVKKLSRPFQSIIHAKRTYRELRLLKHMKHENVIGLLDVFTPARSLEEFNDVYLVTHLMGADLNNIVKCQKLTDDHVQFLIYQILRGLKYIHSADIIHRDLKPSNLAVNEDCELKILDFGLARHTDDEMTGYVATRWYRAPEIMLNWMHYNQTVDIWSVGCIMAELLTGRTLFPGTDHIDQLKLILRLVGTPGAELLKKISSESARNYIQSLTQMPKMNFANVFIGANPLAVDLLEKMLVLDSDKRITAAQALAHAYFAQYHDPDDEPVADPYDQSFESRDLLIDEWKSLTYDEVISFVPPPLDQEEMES

[15] = biological target: cGMP-dependent protein kinase 1 (Homo sapiens) (UniProt Q13976); test: Inhibition of PRKG1beta (unknown origin) at 1 uM in presence of ATP relative to control; values are per cent of control
Sequence of cGMP-dependent protein kinase 1 (Homo sapiens) (Q13976 whole entry): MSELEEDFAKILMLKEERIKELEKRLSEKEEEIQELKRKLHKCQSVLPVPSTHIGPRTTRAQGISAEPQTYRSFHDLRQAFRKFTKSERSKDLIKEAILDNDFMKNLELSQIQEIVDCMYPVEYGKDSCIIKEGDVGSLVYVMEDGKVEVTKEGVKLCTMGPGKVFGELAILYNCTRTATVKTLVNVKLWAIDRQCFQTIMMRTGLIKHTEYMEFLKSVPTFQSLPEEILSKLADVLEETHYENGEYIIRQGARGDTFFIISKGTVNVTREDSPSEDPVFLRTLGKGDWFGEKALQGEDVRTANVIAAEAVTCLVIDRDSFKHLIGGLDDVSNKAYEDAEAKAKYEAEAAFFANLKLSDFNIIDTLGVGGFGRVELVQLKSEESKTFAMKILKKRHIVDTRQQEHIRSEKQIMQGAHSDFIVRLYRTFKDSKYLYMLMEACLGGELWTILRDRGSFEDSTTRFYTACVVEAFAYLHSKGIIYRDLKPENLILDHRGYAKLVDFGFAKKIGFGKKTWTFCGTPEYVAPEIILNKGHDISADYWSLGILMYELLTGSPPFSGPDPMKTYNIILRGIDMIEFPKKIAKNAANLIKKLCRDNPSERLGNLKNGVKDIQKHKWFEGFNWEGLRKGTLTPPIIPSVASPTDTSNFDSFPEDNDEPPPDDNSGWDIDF

SK-N-FI = test: Inhibition of cell proliferation in human SK-N-FI cells upto 10 umol/L incubated for 72 hrs by DAPI staining based analysis; type: functional; conditions: dose <= 10.0 µmol/L
[16] = biological target: [Pyruvate dehydrogenase (acetyl-transferring)] kinase isozyme 1, mitochondrial (Homo sapiens) (UniProt Q15118); test: Inhibition of PDK1 (unknown origin) at 1 uM in presence of ATP relative to control; values are per cent of control
[17] = biological target: Serine/threonine-protein kinase TAO3 (Homo sapiens) (UniProt Q9H2K8); test: Inhibition of TAO3 (unknown origin) at 1 uM in presence of ATP relative to control; values are per cent of control
Sequence of Serine/threonine-protein kinase TAO3 (Homo sapiens) (Q9H2K8 whole entry): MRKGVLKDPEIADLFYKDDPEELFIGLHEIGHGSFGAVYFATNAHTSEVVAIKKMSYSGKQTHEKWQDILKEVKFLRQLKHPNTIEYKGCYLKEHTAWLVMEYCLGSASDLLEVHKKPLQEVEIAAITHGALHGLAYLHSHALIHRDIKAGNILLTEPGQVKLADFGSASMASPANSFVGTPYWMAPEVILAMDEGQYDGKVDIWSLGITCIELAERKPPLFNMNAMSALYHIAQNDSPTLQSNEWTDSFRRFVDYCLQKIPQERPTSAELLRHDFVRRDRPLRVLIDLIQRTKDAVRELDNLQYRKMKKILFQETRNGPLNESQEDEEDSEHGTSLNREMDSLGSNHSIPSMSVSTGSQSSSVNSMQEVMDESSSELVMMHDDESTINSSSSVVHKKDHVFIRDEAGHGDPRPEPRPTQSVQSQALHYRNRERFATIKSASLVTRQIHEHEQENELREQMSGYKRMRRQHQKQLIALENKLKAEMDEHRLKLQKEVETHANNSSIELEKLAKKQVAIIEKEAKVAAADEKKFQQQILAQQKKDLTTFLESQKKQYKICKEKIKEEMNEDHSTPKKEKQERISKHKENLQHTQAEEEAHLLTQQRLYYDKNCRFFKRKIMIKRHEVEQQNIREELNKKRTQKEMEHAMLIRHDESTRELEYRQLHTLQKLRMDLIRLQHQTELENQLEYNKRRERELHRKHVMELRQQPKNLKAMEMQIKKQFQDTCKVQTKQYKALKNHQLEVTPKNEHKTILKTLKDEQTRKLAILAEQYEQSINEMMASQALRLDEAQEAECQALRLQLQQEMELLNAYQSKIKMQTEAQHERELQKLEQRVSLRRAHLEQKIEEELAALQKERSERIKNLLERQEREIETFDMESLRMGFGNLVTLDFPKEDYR

[18] = system: KATO III stomach cancer cell line; test: Inhibition of cell proliferation in human KATO III stomach cancer cell line upto 10 umol/L incubated for 72 hrs by DAPI staining based analysis; type: functional; conditions: dose <= 10.0 µmol/L
[19] = biological target: Inhibitor of nuclear factor kappa-B kinase subunit alpha (Homo sapiens) (UniProt O15111); test: Inhibition of IKKalpha (unknown origin) at 1 uM in presence of ATP relative to control; values are per cent of control
OE19 = test: Inhibition of cell proliferation in human OE19 cells upto 10 umol/L incubated for 72 hrs by DAPI staining based analysis; type: functional; conditions: dose <= 10.0 µmol/L
[20] = biological target: Fibroblast growth factor receptor 1 (Homo sapiens) (UniProt P11362); test: Inhibition of FGFR1 (unknown origin) at 1 uM in presence of ATP relative to control; values are per cent of control
BFTC-905 = test: Inhibition of cell proliferation in human BFTC-905 cells upto 10 umol/L incubated for 72 hrs by DAPI staining based analysis; type: functional; conditions: dose <= 10.0 µmol/L

Question: Which residual activity [1] does the source give for C[C@@H]1CCc2ncc(F)cc2[C@H]2CCCN2c2ccn3ncc(c3n2)C(=O)N1 [SELITRECTINIB] here?
Answer: 108%

Question: What about the IC50 [2] of the same compound?
Answer: 45.5 nM

Question: And the residual activity [3]?
Answer: 112%

Question: What about the residual activity (TAK1/TAB1 (Homo sapiens)) of the same compound?
Answer: 100%

Question: And the residual activity [4]?
Answer: 104%

Question: And the residual activity [5]?
Answer: 108%

Question: And the residual activity [6]?
Answer: 106%

Question: And the inhibition (CAL-27)?
Answer: inactive

Question: And the inhibition (Detroit 562)?
Answer: inactive

Question: And the inhibition (AN3-CA)?
Answer: inactive

Question: And the residual activity [7]?
Answer: 110%

Question: What about the residual activity [8] of the same compound?
Answer: 102%

Question: What about the residual activity [9] of the same compound?
Answer: 115%

Question: And the residual activity [10]?
Answer: 105%

Question: And the inhibition (DMS-53)?
Answer: inactive

Question: What about the inhibition (SW1353) of the same compound?
Answer: inactive

Question: And the residual activity [11]?
Answer: 114%

Question: And the residual activity [12]?
Answer: 104%

Question: And the residual activity [13]?
Answer: 120%

Question: And the inhibition (NCI-H441)?
Answer: inactive

Question: What about the residual activity [14] of the same compound?
Answer: 109%

Question: And the residual activity [15]?
Answer: 114%

Question: And the inhibition (SK-N-FI)?
Answer: inactive

Question: What about the residual activity [16] of the same compound?
Answer: 101%

Question: What about the residual activity [17] of the same compound?
Answer: 102%

Question: What about the inhibition [18] of the same compound?
Answer: inactive

Question: And the residual activity [19]?
Answer: 96.5%

Question: And the inhibition (OE19)?
Answer: inactive

Question: And the residual activity [20]?
Answer: 91.5%

Question: And the inhibition (BFTC-905)?
Answer: inactive
